The values below come from EP0511033A1, “Extracts of the common lady's mantle, their preparation and their applications” (SYNTHELABO, priority 1991, dated 1992).

The nature of experiment [1]: Free radical scavenging test on diphénylpicrylhydrazyl hydrate (decrease of absorbance at 513 nm). It counts as biochemical. The source says: Les extraits d'Alchemille obtenus selon l'invention présentent également des activités anti-radicalaires. On a démontré ces activités in vitro par deux méthodes de dosage. On a réalisé la première méthode de dosage sur un radical libre : le diphénylpicrylhydrazyl hydrate qui absorbe dans le violet à 513 nm. (Lamaison JL., Petitjean-Freytet C., Carnat P., Carnat A., 1988, Plantes Médicinales et Phytothérapie, 22, (4), p. 231-234). Un composé anti-radicalaire, piégeur des radicaux libres, entraîne une inhibition d'apparition de coloration du radical libre témoin, donc une diminution de la densité optique de ce radical libre. L'activité anti-radicalaire d'une substance s'exprime par la diminution du pourcentage d'absorbance du radical libre testé.Dans ces conditions de test, un extrait d'Alchemille obtenu selon l'invention présente une activité similaire à la vitamine E qui est la substance de référence la plus utilisée.

A short description of experiment [2]: Superoxide anion scavenging test (NADH/PMS generation, NBT reduction to diformazan, spectrophotometry). It is filed as biochemical. Conditions: for concentration donnant 90 % d'inhibition: 90 % inhibition of diformazan coloration. An excerpt:
On a également testé l'activité anti-radicalaire sur l'anion superoxyde généré par la réaction de NADH (nicotinamide adénine dinucléotide hydrate) sur le PMS (phénazine méthosulfate). L'anion superoxyde provoque la réduction du NBT (Nitrobleu de Tétrazolium) en diformazan, de coloration bleu intense. On dose celui-ci par spectrophotométrie (Roback J., Gryglewski RJ., Biomedical Pharmacology, 1988, 37, (5), P. 837-841). On exprime l'activité anti-radicalaire d'une substance en pourcentage d'inhibition du développement de coloration due au diformazan. Par cette méthode de dosage, les extraits d'Alchemille présentent une activité bien supérieure aux 2 témoins testés, qui sont la quercétine et l'acide rosmarinique. Ainsi, on obtient 90 % d'inhibition avec des concentrations respectivement de 0,5 mg/ml d'acide rosmarinique et de quercétine, alors qu'on atteint ce niveau d'inhibition à une concentration de 0,1 mg/ml d'extrait aqueux d'Alchemille. Cet extrait est donc, dans ces conditions, 5 fois plus actif que les 2 témoins qui sont les plus actifs parmi les substances testées.

`O=C(/C=C/c1ccc(O)c(O)c1)OC1CC(OC(=O)/C=C/c2ccc(O)c(O)c2)(C(=O)O)CC(O)C1O` (centres unmarked) [Cynarine]: the “activité anti-radicalaire (comparison in words)” value in experiment [1] (compared with vitamine E) was “activité légèrement supérieure à la vitamine E”. Further, the INHIBITION % in experiment [1] (concentration 0,01 mg/ml) amounted to 16%; in experiment [1] (concentration 0,1 mg/ml) it was 89%; in experiment [1] (concentration 0,05 mg/ml) it was 60%; in experiment [1] (concentration 0,5 mg/ml) it was 94%; in experiment [1] (concentration 1 mg/ml), 96%.
As for `O=c1c(O)c(-c2ccc(O)c(O)c2)oc2cc(O)cc(O)c12` [Quercétine], the “concentration donnant 90 % d'inhibition” value in experiment [2] is listed as 0,5 mg/ml. Moreover, the INHIBITION % in experiment [2] (concentration 0,01 mg/ml) is on record as 1%; in experiment [2] (concentration 0,1 mg/ml), 69%; in experiment [2] (concentration 0,05 mg/ml), 31%; in experiment [2] (concentration 0,5 mg/ml) it was 91%; in experiment [2] (concentration 1 mg/ml), 98%.
For the compound `O=C(/C=C/c1ccc(O)c(O)c1)O[C@H](Cc1ccc(O)c(O)c1)C(=O)O` [Acide rosmarinique], the “concentration donnant 90 % d'inhibition” value in experiment [2] is listed as 0,5 mg/ml. Moreover, the INHIBITION % is given as 2% in experiment [2] (concentration 0,01 mg/ml); 59% in experiment [2] (concentration 0,1 mg/ml); 28% in experiment [2] (concentration 0,05 mg/ml); 90% in experiment [2] (concentration 0,5 mg/ml); 99% in experiment [2] (concentration 1 mg/ml).
Consider Vitamine E, for which the INHIBITION % in experiment [1] (concentration 0,01 mg/ml) turned out to be 9%; in experiment [1] (concentration 0,1 mg/ml) it was 61%; in experiment [1] (concentration 0,05 mg/ml) it was 28%; in experiment [1] (concentration 0,5 mg/ml) it was 95%; in experiment [1] (concentration 1 mg/ml), 96%.
